Results reported in patent US11274118B2 (priority 2012, dated 2022).
≈ marks a conversion by molar mass, not a printed value. Where two headings read alike, the source gives them in different places.

Experiments:
Primary cortical cells = assay: Reduction of neuronal cell death after a glutamate challenge (MTT / LDH release); type: cell-based; conditions: for inhibition at 5 µM: 24 h, read-out: reduction in cell death at a 5 μM dose; for dose at maximum efficacy: primary cortical cells; for Emax: read-out: maximum efficacy, reduction in cell death
[1] = system: cerebral edema in rats following bilateral cortical contusion; conditions: rat
[2] = Rat pharmacokinetic profile, i.m. injection; type: in vivo; conditions: rats
Procedure: PK Animal Methods. Rat PK studies were done in jugular cannulated male SD rats, weighing 250-300 grams. 7 was dosed i.v. and i.m.; 13 was dosed i.m. only. For i.v. dosing 7 was formulated in PEG 300/glycofurol/Tween 80/water (26/5/2/67) and dosed @ 10 mg/kg and 3.3 ml/kg. For i.m. dosing, both compounds were formulated in propylene glycol/Tween 80/50 mM Citrate, pH 5.0 (40/4/56) and dosed @10 mg/kg and 1 ml/kg into the upper leg. Blood samples (0.3 ml) were taken at 0.25, 0.50, 1, 2, 4, 6 & 8 hours in the i.m. experiments; the same time points were used for the i.v. experiment, with the addition of an early 0.08 hr (5 min) time point. Samples were collected in either Li heparin or K EDTA microtainers, centrifuged at 2000×g for 10 minutes. Plasma was then transferred to 2 ml Eppendorf tubes, frozen on dry ice and transferred to a −80° C. freezer for storage until analysis for prodrug, oxime and progesterone by LC/MS/MS, followed by pharmacokinetic analysis by WinNonlin.

[3] = rat, in vivo, iv
[4] = rat plasma
[5] = human plasma
physchem [6] = conditions: kinetic from dmso stock
[7] = In vitro metabolism in human liver microsomes; conditions: human liver microsomes at 37° C., 0-60 min
physchem [8] = conditions: pH 7
[9] = buffer
[10] = system: moderate to severe TBI patients; conditions: 3 days of intravenous treatment, 100 moderate to severe TBI patients; cited from earlier work
[11] = Exposure to rat S9 liver fractions; type: in vitro ADME; conditions: hydrochloride
physchem [12] = conditions: aqueous with cosolvent or surfactant or cyclodextrin
[13] = male, Sprague-Dawley (SD), 10 mg/kg

CC(=O)[C@H]1CC[C@H]2[C@@H]3CCC4=C/C(=N/OC(=O)[C@@H](N)C(C)C)CC[C@]4(C)[C@H]3CC[C@]12C.Cl [Compound 1, (S)-1-((E)-((8S,9S,10R,13S,14S,17S)-17-Acetyl-10,13-dimethyl-7,8,9,11-tetrahydro-1H-cyclopenta[a]phenanthren-3 (2H,6H, 1 OH, 12H, 13H, 14H, 15H, 16H, 17H)-ylidene)aminooxy)-2-amino-3-methylbutan-1-one Hydrochloride]
inhibition at 5 µM (Primary cortical cells): 27%
dose at maximum efficacy (Primary cortical cells; glutamate challenge): 5 µM
Emax (Primary cortical cells): 27%
activity in in vitro and in vivo models of brain injury TBI [1]: activity similar to that of progesterone
reduction of brain edema after 24 hours compared to untreated rats ([1]; in vivo): 59%
plasma levels of free oxime, parent prodrug and progesterone [2]: generated measurable concentrations of the corresponding oximes without evidence of either the parent prodrug or progesterone
plasma levels of parent, free oxime and progesterone [3, 13]: hydrolyzed rapidly to provide large concentrations of the free oxime 2 and smaller concentrations of progesterone
conversion to progesterone [4]: neither of the test compounds were converted to progesterone
conversion to progesterone [5]: neither of the test compounds were converted to progesterone
solubility at 90 min (physchem [6]; pH 4, aqueous buffer): 322 µM
solubility at 90 min (physchem [6]; pH 7, aqueous buffer): 172 µM
metabolism in human liver microsomes [7]: hydrolyzed rapidly to the free oxime 2 as well as lesser quantities of progesterone

CC(=O)[C@H]1CC[C@H]2[C@@H]3CCC4=C/C(=N/O)CC[C@]4(C)[C@H]3CC[C@]12C [Compound 2, 1-((8S,9S,10R,13S,14S,17S,E)-3-(Hydroxyimino)-10,13-dimethyl-2,3,6,7,8,9,10,11,12,13,14,15,16,17-tetradecahydro-1H-cyclopenta[a]phenanthren-17-yl)ethanone]
inhibition at 5 µM (Primary cortical cells): 21%
dose at maximum efficacy (Primary cortical cells; glutamate challenge): 5 µM
Emax (Primary cortical cells): 21%
reduction of brain edema ([1]; in vivo, iv, 4 mg/kg): 60%
concentrations of circulating drug ([3]; 4 mg/kg): micromolar concentrations
solubility at 90 min (physchem [6]; pH 4, aqueous buffer): < 45 µM
solubility at 90 min (physchem [6]; pH 7, aqueous buffer): < 45 µM
half-life (physchem [8]; buffer): > 240 h

C/C(=N\O)[C@H]1CC[C@H]2[C@@H]3CCC4=CC(=O)CC[C@]4(C)[C@H]3CC[C@]12C [Compound 3, (8S,9S,10R,13S,14S,17S)-17-((E)-1-(Hydroxyimino)ethyl)-10,13-dimethyl-6,7,8,9,10,11,12,13,14,15,16,17-dodecahydro-1H-cyclopenta[a]phenanthren-3(2H)-one]
aqueous solubility (neutral pH): highly insoluble

C/C(=N\OC(=O)CN(C)C)[C@H]1CC[C@H]2[C@@H]3CCC4=CC(=O)CC[C@]4(C)[C@H]3CC[C@]12C [Compound 10, (8S,9S,10R,13S,14S,17S)-17-((E)-1-(2-(Dimethylamino)acetoxyimino)ethyl)-10,13-dimethyl-6,7,8,9,10,11,12,13,14,15,16,17-dodecahydro-1H-cyclopenta[a]phenanthren-3(2H)-one]
Aqueous Stability t1/2 at pH = 7.0 [9]: 6.2 h
solubility at 90 min (physchem [6]; pH 4, aqueous buffer): 449 µM (≈ 186 µg/mL)
solubility at 90 min (physchem [6]; pH 7, aqueous buffer): 171 µM (≈ 70.9 µg/mL)

CC(=O)[C@H]1CC[C@H]2[C@@H]3CCC4=CC(=O)CC[C@]4(C)[C@H]3CC[C@]12C [PROG, Progesterone, reference compound]
efficacy at the 5 μM dose (Primary cortical cells; 5 μM, glutamate challenge): nearly ineffective
inhibition at 5 µM (Primary cortical cells): 4%
dose at maximum efficacy (Primary cortical cells; glutamate challenge): 20 µM
Emax (Primary cortical cells): 42%
reduction of brain edema after 24 hours compared to untreated rats ([1]; in vivo): 62%
Aqueous solubility at pH 7 (90 min, pH 7): <25 μM
reduction of mortality [10]: over 60%
solubility at 90 min (physchem [6]; pH 4, aqueous buffer): < 25 µM
solubility at 90 min (physchem [6]; pH 7, aqueous buffer): < 25 µM
half-life (physchem [8]; phosphate buffer): > 240 h

CO/N=C(\C)[C@H]1CC[C@H]2[C@@H]3CCC4=CC(=O)CC[C@]4(C)[C@H]3CC[C@]12C [Compound 4, (8S,9S,10R,13S,14S,17S)-17-((E)-1-(Methoxyimino)ethyl)-10,13-dimethyl-6,7,8,9,10,11,12,13,14,15,16,17-dodecahydro-1H-cyclopenta[a]phenanthren-3(2H)-one]
solubility at 90 min (physchem [6]; pH 4, aqueous buffer): < 25 µM
solubility at 90 min (physchem [6]; pH 7, aqueous buffer): < 25 µM
half-life (physchem [8]; buffer): > 240 h

C/C(=N\OCCN1CCOCC1)[C@H]1CC[C@H]2[C@@H]3CCC4=CC(=O)CC[C@]4(C)[C@H]3CC[C@]12C [Compound 5, (8S,9S,10R,13S,14S,17S)-10,13-Dimethyl-17-((E)-1-(2-morpholinoethoxyimino)ethyl)-6,7,8,9,10,11,12,13,14,15,16,17-dodecahydro-1H-cyclopenta[a]phenanthren-3 (2H)-one]
inhibition at 5 µM (Primary cortical cells): 26%
dose at maximum efficacy (Primary cortical cells; glutamate challenge): 5 µM
Emax (Primary cortical cells): 26%
solubility at 90 min (physchem [6]; pH 4, aqueous buffer): > 450 µM
solubility at 90 min (physchem [6]; pH 7, aqueous buffer): 108 µM (≈ 47.8 µg/mL)
half-life (physchem [8]; buffer): > 240 h

C/C(=N\OC(=O)[C@@H](N)C(C)C)[C@H]1CC[C@H]2[C@@H]3CCC4=CC(=O)CC[C@]4(C)[C@H]3CC[C@]12C.Cl [Compound 7, (8S,9S,10R,13 S,14S,17S)-17-((E)-1-((S)-2-Amino-3-methylbutanoyloxyimino)ethyl)-10,13-dimethyl-6,7,8,9,10,11,12,13,14,15,16,17-dodecahydro-1H-cyclopenta[a]phenanthren-3 (2H)-one hydrochloride]
inhibition at 5 µM (Primary cortical cells): 24%
dose at maximum efficacy (Primary cortical cells; glutamate challenge): 5 µM
Emax (Primary cortical cells): 24%
reduction of brain edema after 24 hours compared to untreated rats ([1]; in vivo): 56%
Cmax and AUC, compared with 1 [2]: significantly higher Cmax and AUC than the relative C-3 oxime 1
plasma levels of free oxime, parent prodrug and progesterone [2]: generated measurable concentrations of the corresponding oximes without evidence of either the parent prodrug or progesterone
metabolism in rat S9 liver fractions [11]: relatively stable and no measurable quantities of progesterone were generated
levels of progesterone produced, compared with compound 1 [3, 13]: superior to those generated by compound 1
plasma levels of parent, free oxime and progesterone [3, 13]: low levels of the parent compound 7 was observed, high levels of the relative free oxime 3, and therapeutic levels of progesterone
conversion to progesterone [4]: neither of the test compounds were converted to progesterone
conversion to progesterone [5]: neither of the test compounds were converted to progesterone
solubility at 90 min (physchem [6]; pH 4, aqueous buffer): > 645 µM
solubility at 90 min (physchem [6]; pH 7, aqueous buffer): 146 µM
half-life (physchem [8]; buffer): 11.4 h
solubility (physchem [12]): ≥ 60000 µM
